Experimental data: ChEMBL document CHEMBL2346515, “Discovery of 4-alkylamino-7-aryl-3-cyanoquinoline LRRK2 kinase inhibitors” (Bioorg Med Chem Lett, 2013); call rule not given here

Experiments:
[1] = molecular target: Receptor-type tyrosine-protein kinase FLT3 (Homo sapiens) (UniProt P36888); assay: Inhibition of FLT3 (unknown origin) at 1 uM by single point assay
[2] = molecular target: T1, Serine/threonine-protein kinase Chk1 (Homo sapiens) (UniProt O14757); assay: Inhibition of CHK1 (unknown origin) at 1 uM by single point assay
T1 sequence (whole entry): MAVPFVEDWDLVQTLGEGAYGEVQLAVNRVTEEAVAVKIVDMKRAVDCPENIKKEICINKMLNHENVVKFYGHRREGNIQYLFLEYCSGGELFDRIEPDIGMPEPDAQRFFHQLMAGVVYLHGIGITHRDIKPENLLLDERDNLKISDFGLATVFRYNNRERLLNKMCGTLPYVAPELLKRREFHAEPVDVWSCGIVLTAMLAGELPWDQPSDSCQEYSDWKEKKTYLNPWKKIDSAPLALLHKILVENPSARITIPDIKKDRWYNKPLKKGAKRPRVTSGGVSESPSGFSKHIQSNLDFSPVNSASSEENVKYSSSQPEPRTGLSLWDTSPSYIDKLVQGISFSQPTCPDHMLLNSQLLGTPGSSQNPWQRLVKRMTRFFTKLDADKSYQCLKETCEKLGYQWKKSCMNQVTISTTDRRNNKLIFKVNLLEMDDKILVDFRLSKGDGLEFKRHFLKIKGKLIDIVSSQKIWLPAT

[3] = molecular target: Protein-tyrosine kinase 2-beta (Homo sapiens) (UniProt Q14289); assay: Inhibition of PTK2B (unknown origin) at 1 uM by single point assay
[4] = molecular target: Serine/threonine-protein kinase 16 (Homo sapiens) (UniProt O75716); assay: Inhibition of STK16 (unknown origin) at 1 uM by single point assay
[5] = molecular target: T2, Leucine-rich repeat serine/threonine-protein kinase 2 (Homo sapiens, UniProt Q5S007, G2019S); assay: Inhibition of LRRK2 G2019S mutant (unknown origin) Ser935 phosphorylation expressed in HEK293 cells by cell-based assay
[6] = molecular target: cAMP-dependent protein kinase catalytic subunit alpha (Homo sapiens) (UniProt P17612); assay: Inhibition of PRKACA (unknown origin) at 1 uM by single point assay
[7] = molecular target: T3, Leucine-rich repeat serine/threonine-protein kinase 2 (Homo sapiens, UniProt Q5S007); assay: Inhibition of wild type GST-tagged LRRK2 (970-2527 amino acids)(unknown origin) assessed as inhibition of LRRKtide phosphorylation by HTRF assay
[8] = molecular target: Dual specificity protein kinase CLK1 (Homo sapiens) (UniProt P49759); assay: Inhibition of CLK1 (unknown origin) at 1 uM by single point assay
[9] = molecular target: T2, Leucine-rich repeat serine/threonine-protein kinase 2; assay: Inhibition of GST-tagged LRRK2 G2019S mutant (970-2527 amino acids) (unknown origin) assessed as inhibition of LRRKtide phosphorylation by HTRF assay
[10] = molecular target: Platelet-derived growth factor receptor alpha (Homo sapiens) (UniProt P16234); assay: Inhibition of PDGFRalpha (unknown origin) at 1 uM by single point assay
[11] = molecular target: Proto-oncogene tyrosine-protein kinase receptor Ret (Homo sapiens) (UniProt P07949); assay: Inhibition of RET (unknown origin) at 1 uM by single point assay
[12] = molecular target: Cyclin-dependent kinase 5/CDK5 activator 1 (Homo sapiens) (UniProt Q00535+Q15078); assay: Inhibition of CDK5/p25 (unknown origin) at 1 uM by single point assay; assay type: protein-complex assay
[13] = molecular target: Serine/threonine-protein kinase MARK2 (Homo sapiens) (UniProt Q7KZI7); assay: Inhibition of MARK2 (unknown origin) at 1 uM by single point assay
[14] = molecular target: Cyclin-dependent kinase 2/cyclin A (Homo sapiens) (UniProt P24941+P20248+P78396); assay: Inhibition of CDK2/cyclin A (unknown origin) at 1 uM by single point assay; assay type: protein-complex assay
[15] = molecular target: Cyclin-dependent kinase 1/cyclin B1 (Homo sapiens) (UniProt P06493+P14635); assay: Inhibition of CDK1/cyclin B (unknown origin) at 1 uM by single point assay; assay type: protein-complex assay
[16] = molecular target: T3, Leucine-rich repeat serine/threonine-protein kinase 2; assay: Inhibition of LRRK2 (unknown origin) at 1 uM by single point assay
MDCK = assay: Permeability in MDCK cells expressing MDR1; assay type: ADME, cell-based, Canis lupus familiaris; conditions: dog
[17] = molecular target: Serine/threonine-protein kinase PLK3 (Homo sapiens) (UniProt Q9H4B4); assay: Inhibition of PLK3 (unknown origin) at 1 uM by single point assay
Brain = assay: Drug uptake in brain of MDR1 a/b(-/-) and P-gp competant wild-type FVB mouse at 1 mg/kg, iv after 5 mins; assay type: ADME, organism-based; design: dose 1 mg/kg, route intravenous; conditions: in vivo
[18] = molecular target: T4, Dual specificity protein kinase TTK (Homo sapiens) (UniProt P33981); assay: Inhibition of TTK (unknown origin) at 1 uM by single point assay
T4 sequence (whole entry): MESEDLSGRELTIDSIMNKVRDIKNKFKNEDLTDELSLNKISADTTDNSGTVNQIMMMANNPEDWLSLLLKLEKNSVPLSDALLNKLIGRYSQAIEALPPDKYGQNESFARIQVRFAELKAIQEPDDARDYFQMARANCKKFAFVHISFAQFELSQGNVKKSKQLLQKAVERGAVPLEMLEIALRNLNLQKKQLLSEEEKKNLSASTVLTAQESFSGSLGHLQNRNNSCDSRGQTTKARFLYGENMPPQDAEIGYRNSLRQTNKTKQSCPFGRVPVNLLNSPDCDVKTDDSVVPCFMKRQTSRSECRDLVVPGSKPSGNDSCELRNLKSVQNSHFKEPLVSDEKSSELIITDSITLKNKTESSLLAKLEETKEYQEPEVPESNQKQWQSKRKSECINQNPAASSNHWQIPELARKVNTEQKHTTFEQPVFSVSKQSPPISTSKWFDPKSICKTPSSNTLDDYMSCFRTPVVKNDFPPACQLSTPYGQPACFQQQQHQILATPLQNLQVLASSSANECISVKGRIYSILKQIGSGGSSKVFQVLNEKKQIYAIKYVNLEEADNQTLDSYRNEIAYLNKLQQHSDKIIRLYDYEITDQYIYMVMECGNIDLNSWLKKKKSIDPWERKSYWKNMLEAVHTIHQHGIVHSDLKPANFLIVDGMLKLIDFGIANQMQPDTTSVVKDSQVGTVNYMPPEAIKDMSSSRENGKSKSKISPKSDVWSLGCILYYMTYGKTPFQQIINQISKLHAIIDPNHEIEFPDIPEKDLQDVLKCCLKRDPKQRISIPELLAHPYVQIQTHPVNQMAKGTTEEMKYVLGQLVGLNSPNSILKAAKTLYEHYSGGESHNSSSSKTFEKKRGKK

T2 sequence (Q5S007 whole entry G2019S): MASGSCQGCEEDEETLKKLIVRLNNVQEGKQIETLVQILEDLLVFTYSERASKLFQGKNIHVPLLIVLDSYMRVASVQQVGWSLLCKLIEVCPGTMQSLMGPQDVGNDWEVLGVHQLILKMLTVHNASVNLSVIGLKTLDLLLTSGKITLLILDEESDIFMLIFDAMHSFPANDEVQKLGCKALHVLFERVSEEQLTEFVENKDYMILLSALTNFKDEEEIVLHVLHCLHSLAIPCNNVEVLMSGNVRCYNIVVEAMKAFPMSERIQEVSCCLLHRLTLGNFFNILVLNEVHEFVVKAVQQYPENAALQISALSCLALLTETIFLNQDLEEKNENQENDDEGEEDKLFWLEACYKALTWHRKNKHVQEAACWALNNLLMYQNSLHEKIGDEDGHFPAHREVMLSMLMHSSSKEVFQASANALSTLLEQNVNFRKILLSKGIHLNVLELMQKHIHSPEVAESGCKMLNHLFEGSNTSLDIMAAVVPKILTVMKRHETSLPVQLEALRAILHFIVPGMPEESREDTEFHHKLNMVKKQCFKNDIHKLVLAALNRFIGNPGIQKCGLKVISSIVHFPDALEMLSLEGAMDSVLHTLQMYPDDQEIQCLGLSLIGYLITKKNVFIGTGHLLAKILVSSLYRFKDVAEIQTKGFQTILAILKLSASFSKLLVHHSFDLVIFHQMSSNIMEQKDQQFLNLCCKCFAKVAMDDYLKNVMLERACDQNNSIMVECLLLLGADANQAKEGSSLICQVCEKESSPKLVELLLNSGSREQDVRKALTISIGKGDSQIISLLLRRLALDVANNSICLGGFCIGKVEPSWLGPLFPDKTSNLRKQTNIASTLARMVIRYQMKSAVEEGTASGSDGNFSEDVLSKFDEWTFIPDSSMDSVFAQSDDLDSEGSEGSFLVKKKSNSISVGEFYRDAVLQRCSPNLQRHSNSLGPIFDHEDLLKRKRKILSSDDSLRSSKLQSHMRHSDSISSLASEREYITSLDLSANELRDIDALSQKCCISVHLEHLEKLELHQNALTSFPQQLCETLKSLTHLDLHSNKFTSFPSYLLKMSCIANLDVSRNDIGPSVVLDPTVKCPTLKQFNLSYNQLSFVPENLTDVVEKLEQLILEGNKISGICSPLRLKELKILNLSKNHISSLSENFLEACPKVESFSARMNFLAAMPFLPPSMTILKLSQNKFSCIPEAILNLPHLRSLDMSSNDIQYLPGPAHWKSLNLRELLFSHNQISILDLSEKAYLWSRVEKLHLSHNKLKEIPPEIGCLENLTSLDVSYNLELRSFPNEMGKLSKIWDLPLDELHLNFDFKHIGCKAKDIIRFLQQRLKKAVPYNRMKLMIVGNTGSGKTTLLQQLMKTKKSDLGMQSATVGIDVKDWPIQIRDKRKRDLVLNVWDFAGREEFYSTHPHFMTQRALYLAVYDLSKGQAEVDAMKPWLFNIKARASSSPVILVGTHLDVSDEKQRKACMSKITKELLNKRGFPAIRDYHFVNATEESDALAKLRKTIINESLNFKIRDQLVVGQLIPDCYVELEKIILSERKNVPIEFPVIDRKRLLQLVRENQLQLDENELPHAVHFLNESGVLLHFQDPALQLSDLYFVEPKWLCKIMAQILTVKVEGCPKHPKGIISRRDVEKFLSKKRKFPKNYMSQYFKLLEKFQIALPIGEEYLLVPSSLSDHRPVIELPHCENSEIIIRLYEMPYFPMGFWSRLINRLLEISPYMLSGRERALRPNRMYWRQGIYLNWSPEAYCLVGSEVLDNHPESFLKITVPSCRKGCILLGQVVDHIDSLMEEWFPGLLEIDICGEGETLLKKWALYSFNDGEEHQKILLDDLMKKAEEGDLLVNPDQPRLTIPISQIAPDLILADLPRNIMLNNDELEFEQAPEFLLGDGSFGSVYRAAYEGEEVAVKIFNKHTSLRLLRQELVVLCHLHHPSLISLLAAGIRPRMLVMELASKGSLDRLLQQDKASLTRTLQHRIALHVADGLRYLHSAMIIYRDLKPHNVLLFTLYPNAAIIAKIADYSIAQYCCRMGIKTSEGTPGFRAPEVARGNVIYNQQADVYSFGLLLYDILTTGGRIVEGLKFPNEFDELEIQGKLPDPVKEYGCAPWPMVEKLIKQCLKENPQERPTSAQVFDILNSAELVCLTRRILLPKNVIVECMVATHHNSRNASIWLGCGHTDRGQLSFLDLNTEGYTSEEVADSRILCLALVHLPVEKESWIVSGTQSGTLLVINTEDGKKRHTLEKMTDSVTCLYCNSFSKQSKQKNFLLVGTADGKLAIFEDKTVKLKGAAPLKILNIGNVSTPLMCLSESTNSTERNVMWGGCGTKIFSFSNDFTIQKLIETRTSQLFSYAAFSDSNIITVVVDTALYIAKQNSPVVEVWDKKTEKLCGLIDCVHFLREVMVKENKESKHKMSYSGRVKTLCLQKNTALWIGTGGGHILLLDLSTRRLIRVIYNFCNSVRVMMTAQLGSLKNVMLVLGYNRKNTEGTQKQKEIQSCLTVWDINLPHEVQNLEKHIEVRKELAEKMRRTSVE
T3 sequence (Q5S007 whole entry, the tested form may be a part): as the sequence (Q5S007 whole entry G2019S) above, with S2019G counted along it
Receptor-type tyrosine-protein kinase FLT3 (Homo sapiens), sequence (P36888 whole entry): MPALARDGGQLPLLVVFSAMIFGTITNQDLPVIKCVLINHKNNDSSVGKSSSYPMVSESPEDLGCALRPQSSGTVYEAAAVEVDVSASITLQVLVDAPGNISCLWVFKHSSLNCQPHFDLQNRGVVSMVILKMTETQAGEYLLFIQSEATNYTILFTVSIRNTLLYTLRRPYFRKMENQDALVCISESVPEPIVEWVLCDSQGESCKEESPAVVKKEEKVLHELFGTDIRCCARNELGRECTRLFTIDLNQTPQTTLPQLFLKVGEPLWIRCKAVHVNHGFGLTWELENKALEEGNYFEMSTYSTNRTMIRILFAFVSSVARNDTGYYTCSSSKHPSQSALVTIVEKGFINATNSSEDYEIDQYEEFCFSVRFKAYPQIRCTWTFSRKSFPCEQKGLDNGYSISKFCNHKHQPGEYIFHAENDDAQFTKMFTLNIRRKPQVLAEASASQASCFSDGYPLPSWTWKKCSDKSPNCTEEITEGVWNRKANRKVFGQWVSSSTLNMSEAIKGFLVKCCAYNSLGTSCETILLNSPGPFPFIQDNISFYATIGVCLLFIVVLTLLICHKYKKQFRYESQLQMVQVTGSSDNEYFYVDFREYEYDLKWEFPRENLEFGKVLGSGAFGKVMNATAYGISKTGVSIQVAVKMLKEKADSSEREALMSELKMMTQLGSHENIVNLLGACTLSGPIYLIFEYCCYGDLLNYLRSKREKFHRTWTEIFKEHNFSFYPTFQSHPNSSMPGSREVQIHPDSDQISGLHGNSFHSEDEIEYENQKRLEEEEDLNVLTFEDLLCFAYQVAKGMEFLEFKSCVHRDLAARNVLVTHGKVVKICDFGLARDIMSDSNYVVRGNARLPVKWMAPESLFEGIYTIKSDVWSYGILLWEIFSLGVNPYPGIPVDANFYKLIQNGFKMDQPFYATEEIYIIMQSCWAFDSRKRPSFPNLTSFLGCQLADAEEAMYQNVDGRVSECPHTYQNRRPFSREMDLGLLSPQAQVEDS
Cyclin-dependent kinase 1/cyclin B1 (Homo sapiens), sequence (P06493 whole entry, looked up): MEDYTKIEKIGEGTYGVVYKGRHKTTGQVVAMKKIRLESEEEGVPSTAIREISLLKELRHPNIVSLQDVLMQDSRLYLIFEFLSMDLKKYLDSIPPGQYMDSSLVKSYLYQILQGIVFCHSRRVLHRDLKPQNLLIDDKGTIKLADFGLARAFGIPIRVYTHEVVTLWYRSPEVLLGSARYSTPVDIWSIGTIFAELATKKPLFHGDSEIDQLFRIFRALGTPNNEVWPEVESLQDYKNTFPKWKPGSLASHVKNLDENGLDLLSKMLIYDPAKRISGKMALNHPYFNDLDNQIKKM
Cyclin-dependent kinase 1/cyclin B1 (Homo sapiens), sequence (P14635 whole entry, looked up): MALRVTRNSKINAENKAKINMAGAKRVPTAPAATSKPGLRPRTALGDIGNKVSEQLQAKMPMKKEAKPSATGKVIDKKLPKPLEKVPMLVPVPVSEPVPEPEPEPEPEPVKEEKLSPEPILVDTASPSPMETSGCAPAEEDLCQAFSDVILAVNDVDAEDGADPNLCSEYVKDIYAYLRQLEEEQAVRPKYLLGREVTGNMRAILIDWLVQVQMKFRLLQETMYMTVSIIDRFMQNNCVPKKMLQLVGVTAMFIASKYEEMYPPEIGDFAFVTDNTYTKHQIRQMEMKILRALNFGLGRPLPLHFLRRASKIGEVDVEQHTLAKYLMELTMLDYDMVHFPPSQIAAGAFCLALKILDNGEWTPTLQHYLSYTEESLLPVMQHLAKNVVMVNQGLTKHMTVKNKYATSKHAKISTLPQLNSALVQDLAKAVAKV
Dual specificity protein kinase CLK1 (Homo sapiens), sequence (P49759 whole entry, looked up, the tested form may be a part): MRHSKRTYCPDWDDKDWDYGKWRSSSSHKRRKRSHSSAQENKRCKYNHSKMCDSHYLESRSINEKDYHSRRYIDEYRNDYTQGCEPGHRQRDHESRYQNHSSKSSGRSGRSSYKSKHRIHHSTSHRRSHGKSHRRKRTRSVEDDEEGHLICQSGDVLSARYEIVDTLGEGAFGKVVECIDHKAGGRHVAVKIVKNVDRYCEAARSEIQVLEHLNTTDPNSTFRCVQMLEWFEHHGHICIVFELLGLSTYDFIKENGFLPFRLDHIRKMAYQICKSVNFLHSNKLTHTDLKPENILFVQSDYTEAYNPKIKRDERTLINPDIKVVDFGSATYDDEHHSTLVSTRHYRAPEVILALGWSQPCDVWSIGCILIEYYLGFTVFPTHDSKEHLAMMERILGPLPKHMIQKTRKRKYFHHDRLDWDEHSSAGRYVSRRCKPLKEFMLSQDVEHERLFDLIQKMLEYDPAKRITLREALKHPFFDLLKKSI
Serine/threonine-protein kinase 16 (Homo sapiens), sequence (O75716 whole entry): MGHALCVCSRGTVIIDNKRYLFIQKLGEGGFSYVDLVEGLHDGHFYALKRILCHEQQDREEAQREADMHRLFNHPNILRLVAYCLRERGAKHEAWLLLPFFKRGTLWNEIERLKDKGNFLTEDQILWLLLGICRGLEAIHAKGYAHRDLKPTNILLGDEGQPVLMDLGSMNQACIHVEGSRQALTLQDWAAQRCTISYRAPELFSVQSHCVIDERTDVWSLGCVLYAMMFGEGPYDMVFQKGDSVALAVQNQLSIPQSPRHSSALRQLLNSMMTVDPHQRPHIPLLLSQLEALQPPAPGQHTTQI

Row | Structure (SMILES) | inhibition [1] | inhibition [2] | inhibition [3] | inhibition [4] | EC50 [5] | inhibition [6] | IC50 [7] | inhibition [8] | IC50 [9] | inhibition [10] | inhibition [11] | inhibition [12] | inhibition [13] | inhibition [14] | inhibition [15] | inhibition [16] | permeability (MDCK) | inhibition [17] | Drug uptake (Brain) | inhibition [18]
1 | CC(C)Nc1c(C#N)cnc2cc(-c3cnn(C)c3)ccc12 | 84% | 64% | 12% | 10% | 0.14 µM | 9% | 0.007 µM | 27% | 0.005 µM | 30% | 41% | 12% | 64% | 5% | 14% | 96% | impermeable | 12% | Active | -9%
2 | C[C@@H](Nc1c(C#N)cnc2cc(-c3ccc(-n4ccoc4=O)cc3)ccc12)C1CC1 |  |  |  |  | 0.731 µM |  | 0.048 µM |  | 0.027 µM |  |  |  |  |  |  |  | impermeable |  | Active | 
3 | CC(C)Nc1c(C#N)cnc2cc(-c3ccc(S(C)(=O)=O)cc3)ccc12 | 16% | 36% | 33% | 3% | 0.435 µM | 9% | 0.031 µM | 32% | 0.028 µM | 33% | 43% | 16% | 52% | 12% | 12% | 82% | impermeable | 13% | Active | -4%
